Test results reported in patent US20210221848A1, “POLYMYXIN DERIVATIVES AND THEIR USE IN COMBINATION THERAPY TOGETHER WITH DIFFERENT ANTIBIOTICS” (priority 2014, published 2021).
Like-named read-outs stand apart in the source and are kept apart here.

How the values were obtained:
[1] = system: K. pneumoniae strains with elevated MICs to Polymyxin B; assay: MIC against strains with elevated MICs to Polymyxin B; type: cell-based, Klebsiella pneumoniae; conditions: Table 6D
Method: (§1) The inoculum was prepared by making a direct suspension of isolated colonies (selected from an 18-24 hour Mueller-Hinton agar plate) adjusted to the 0.5 McFarland standard. […] The assays were performed in duplicate. […] In cases where the duplicate values varied by less than 2-fold, the lower of the two values is reported. If a variation of greater than 2-fold was observed, the assay was considered non-valid. Several of the compounds were subjected to multiple tests, and where this is the case, the MIC reflects the modal value obtained.
(§2) The Further Synthesis Examples were tested against a range of Gram negative bacteria, and tested for HK-2 cell toxicity. All the worked examples, including the Synthesis and Further Synthesis Examples, were also tested against a range of Gram negative bacteria that are resistant to Polymyxin B (i.e. those strains where Polymyxin B has an elevated MIC value).

[2] = system: E. coli strains with elevated MICs to Polymyxin B; assay: as above; type: cell-based, Escherichia coli; conditions: Table 6D
Method: as §1, §2

[3] = system: A. baumanii strains with elevated MICs to Polymyxin B; assay: as above; type: cell-based, Acinetobacter baumannii; conditions: Table 6D
Method: as §1, §2

[4] = absence of a second agent, Table 6B

Substance	MIC, E. coli ATCC 25922 (E. coli; [4])	MIC, E. coli NCTC 13441 (E. coli; [4])	MIC, P. aeruginosa ATCC 27853 (P. aeruginosa; [4])	MIC, P. aeruginosa CCUG 59347 (P. aeruginosa; [4])	MIC, K. pneumoniae ATCC 4352 (K. pneumoniae; [4])	MIC, K. pneumoniae ATCC BAA-2146 (K. pneumoniae; [4])	MIC, A. baumannii ATCC BAA-747 (A. baumannii; [4])	MIC, A. baumannii NCTC 13424 (A. baumannii; [4])	MIC, E. coli ATCC 25922 (E. coli; sole activity, Table 6C)	MIC, E. coli NCTC 13441 (E. coli; sole activity, Table 6C)	MIC, P. aeruginosa ATCC 27853 (P. aeruginosa; sole activity, Table 6C)	MIC, P. aeruginosa CCUG 59347 (P. aeruginosa; sole activity, Table 6C)	MIC, K. pneumoniae ATCC 4352 (K. pneumoniae; sole activity, Table 6C)	MIC, K. pneumoniae ATCC BAA-2146 (K. pneumoniae; sole activity, Table 6C)	MIC, A. baumannii ATCC BAA-747 (A. baumannii; sole activity, Table 6C)	MIC, A. baumannii NCTC 13424 (A. baumannii; sole activity, Table 6C)	other results
2-aminomethyl-3- naphthalen-2-yl- propanoyl polymyxin B nonapeptide [Example D40]	2 micrograms/mL	2 micrograms/mL	0.5 micrograms/mL	1 micrograms/mL	2 micrograms/mL	4 micrograms/mL	>8 micrograms/mL	8 micrograms/mL	–	–	–	–	–	–	–	–	–
(S)-4-amino-2- (benzyloxy)butan- oyl Polymyxin B nonapeptide [Example D54]	–	–	–	–	–	–	–	–	0.25 micrograms/mL	0.5 micrograms/mL	0.5 micrograms/mL	1 micrograms/mL	0.125 micrograms/mL	0.25 micrograms/mL	1 micrograms/mL	4 micrograms/mL	–
5- (isobutylamino)pi- peridine-3- carbonyl Polymyxin B nonapeptide [Example D62]	–	–	–	–	–	–	–	–	0.5 micrograms/mL	1 micrograms/mL	1 micrograms/mL	2 micrograms/mL	0.5 micrograms/mL	1 micrograms/mL	4 micrograms/mL	4 micrograms/mL	–
1-(2- trifluoromethylben- zyl)piperazine- 2-carbonyl polymyxin E nonapeptide [Example D72]	–	–	–	–	–	–	–	–	0.25 micrograms/mL	0.25 micrograms/mL	0.5 micrograms/mL	1 micrograms/mL	0.125 micrograms/mL	0.25 micrograms/mL	0.125 micrograms/mL	–	MIC K. pneumoniae 062 ([1]; strain 062, elevated MIC to Polymyxin B): 64 micrograms/mL; MIC K. pneumoniae 063 ([1]; strain 063, elevated MIC to Polymyxin B): 32 micrograms/mL; MIC K. pneumoniae 655 ([1]; strain 655, elevated MIC to Polymyxin B): 64 micrograms/mL; MIC E. coli 059 ([2]; strain 059, elevated MIC to Polymyxin B): 16 micrograms/mL; MIC E. coli 060 ([2]; strain 060, elevated MIC to Polymyxin B): 8 micrograms/mL; MIC E. coli 061 ([2]; strain 061, elevated MIC to Polymyxin B): 16 micrograms/mL; MIC A. baumannii 053 ([3]; strain 053, elevated MIC to Polymyxin B): >128 micrograms/mL; MIC A. baumannii 056 ([3]; strain 056, elevated MIC to Polymyxin B): 128 micrograms/mL; MIC A. baumannii 068 ([3]; strain 068, elevated MIC to Polymyxin B): 64 micrograms/mL; MIC A. baumannii 070 ([3]; strain 070, elevated MIC to Polymyxin B): 128 micrograms/mL
2-aminomethyl-3- naphthalen-2-yl- propanoyl polymyxin B nonapeptide [Example D41]	1 micrograms/mL	1 micrograms/mL	0.5 micrograms/mL	1 micrograms/mL	2 micrograms/mL	–	2 micrograms/mL	1 micrograms/mL	–	–	–	–	–	–	–	–	–
(trans-5-(2- methylpropyl) piperidine)-3-carbonyl polymyxin B nonapeptide [Example D49]	8 micrograms/mL	8 micrograms/mL	2 micrograms/mL	4 micrograms/mL	4 micrograms/mL	8 micrograms/mL	>8 micrograms/mL	>8 micrograms/mL	–	–	–	–	–	–	–	–	–
(S)-1-((2,3- dihydrobenzo[b][1,4] dioxin-6- yl)methyl)piperazine- 2-carbonyl polymyxin B nonapeptide [Example D58]	–	–	–	–	–	–	–	–	0.25 micrograms/mL	0.25 micrograms/mL	0.5 micrograms/mL	1 micrograms/mL	0.25 micrograms/mL	0.25 micrograms/mL	1 micrograms/mL	0.5 micrograms/mL	–
1-(2- trifluoromethylben- zyl)piperazine- 2-carbonyl Polymyxin B nonapeptide [Example D55]	–	–	–	–	–	–	–	–	0.25 micrograms/mL	0.25 micrograms/mL	0.5 micrograms/mL	1 micrograms/mL	0.25 micrograms/mL	0.5 micrograms/mL	0.25 micrograms/mL	0.5 micrograms/mL	–
(S)-3-amino-2- (benzyloxy)propan- oyl Polymyxin B nonapeptide [Example D61]	–	–	–	–	–	–	–	–	0.5 micrograms/mL	0.5 micrograms/mL	0.5 micrograms/mL	1 micrograms/mL	0.25 micrograms/mL	0.25 micrograms/mL	2 micrograms/mL	1 micrograms/mL	–
(cis-6-octylpiperidine)- 3-carbonyl polymyxin B nonapeptide [Example D17]	2 micrograms/mL	2 micrograms/mL	0.5 micrograms/mL	0.5 micrograms/mL	2 micrograms/mL	2 micrograms/mL	2 micrograms/mL	4 micrograms/mL	–	–	–	–	–	–	–	–	–
(cis-5- cyclohexylpiperidine)- 3-carbonyl L-Thr-L- Dap-polymyxin B heptapeptide [Example D43]	2 micrograms/mL	4 micrograms/mL	1 micrograms/mL	2 micrograms/mL	2 micrograms/mL	4 micrograms/mL	4 micrograms/mL	4 micrograms/mL	–	–	–	–	–	–	–	–	–
6- isobutylpiperazine- 2-carbonyl L- Thr-L-Dap- polymyxin B heptapeptide [Example D80]	–	–	–	–	–	–	–	–	0.5 micrograms/mL	–	0.5 micrograms/mL	0.5 micrograms/mL	0.25 micrograms/mL	–	0.5 micrograms/mL	0.5 micrograms/mL	–
